Like-named read-outs stand apart in the source and are kept apart here. *1 amine or outer side, *2 acyl side, *3 side chain or, on linkers, in order; H or OH if unused. Where a SMILES comes first, the peptide text is derived from it. [ ]: non-standard residue; d: D form. X1 = O=C1c2ccccc2[C@@](O)(CN(Cc2ccccc2)[*:1])N1CC(=O)[*:2]; NMeL = CN[C@@H](CC(C)C)C(=O)O
What was measured:
[1] = tested on: lactate dehydrogenase in HepG-2 cells; assay: Lactate dehydrogenase (LDH) activity assay in cells; type: cell-based, human; details: 48 h
Source text: The accumulation of lactate dehydrogenase can produce lactate metabolites and cause the deterioration of tumor cells. By inhibiting lactate dehydrogenase activity, the energy supply of tumor cells would be blocked, thus reducing their metastasis and progression. Therefore, in this paper, we also investigated the inhibitory activity of compound 8 on lactate dehydrogenase in HepG-2 cells. It has been known that LDH could catalyze lactic acid to generate pyruvate, which could react with 2,4-dinitrophenylhydrazine (DNPH) to form dinitrophenyl-pyruvate and form a reddish-brown product after reacting with an alkaline solution. The obtained product can be assessed by visible spectrophotometry. […]
Lactate dehydrogenase activity of HepG-2 cells treated with compound 8 was examined by using the Lactate Dehydrogenase Kit (Beijing Solarbio Science & Technology, Beijing, China) according to the instructions for use. […] Then the other reagents in the Lactate Dehydrogenase Kit (Beyotime Biotechnology, Shanghai, China) were added according to the instructions, and the absorption of the mixture was measured by the spectrophotometer. […] The absorption of the standard solution at 450 nm was measured to plot the standard curve. […]

HepG-2 cells = type: cell-based, human; details: 48 h; for Q4 cells (viable, lower left): human
Method: HepG-2 cells were treated with 0, 5.5, 11 and 22 µM of compound 8 and incubated for 48 h, then double-stained carefully by membrane-linked protein Annexin-V-fluorescein isothiocyanate (FITC) and propidium iodide (PI) for flow cytometry analysis. Generally, in the early stages of apoptosis, phosphatidylserine flips from the inner cell membrane to the surface of the cell membrane. […] Propidium iodide (PI) is a nucleic acid dye that can only cross the membrane of advanced apoptosis and necrotic cells, reddening the nucleus. Therefore, when the drug-treated cells are double-stained by the two fluorescent dyes, early and late apoptosis and necrotic cells can be clearly distinguished.
HepG-2 cells were seeded in a 6-well plate (2 × 10^5 cells per well). The different concentrations of compound 8 (0, 5.5, 11, 22 μg/mL) were added and incubated for 48 h to induce apoptosis. The collected cells were centrifuged (2000 r/min) for 5 min and resuspended in PBS (200 μL). Then, 5 μL of Annexin V-FITC was added and incubated for 10 min at room temperature away from light. Finally, 5 µL propidium iodide solution was added and incubated for 5 min away from light. The fluorescence intensity was detected by flow cytometry and analyzed by utilizing FlowJo_V10 software (FlowJo X 10.0.7r2, BD Biosciences, Franklin Lakes, NJ, USA).

CC(C)C[C@@H]1NC(=O)CN2C(=O)c3ccccc3[C@@]2(O)CN(Cc2ccccc2)C(=O)[C@H](CC(C)C)NC(=O)[C@H](CC(C)C)N(C)C(=O)[C@H](CC(C)C)NC(=O)[C@H](CC(C)C)NC1=O [Compound 8, 3-Hydroxy-isoindolinone-cyclo-Gly-Leu-N-Me-Leu-Leu-Leu-Leu] (cyclo(LL[NMeL]L[X1]L))
effect on lactate dehydrogenase activity [1]: significant decrease | Q3 cells (apoptosis cells) (HepG-2 cells; 22 μM): 32.4% | Q4 cells (viable, lower left) (HepG-2 cells; 5.5 µM): 86.2% | Q4 cells (viable, lower left) (HepG-2 cells; 11 µM): 77.3% | Q4 cells (viable, lower left) (HepG-2 cells; 22 µM): 65.4%
